# In paper PMC8267566, “Human GPR17 missense variants identified in metabolic disease patients have distinct downstream signaling profiles” (The Journal of Biological Chemistry, 2021):
# Legend:
# Test in all cases: GloSensor cAMP assay, inhibition of forskolin-stimulated cAMP
# Type in all cases: cell-based
# [1] = biological target: T1, hGPR17L-G354V (Homo sapiens, UniProt Q13304, G354V)
# T1 construct: expressed in transfected cells; host or cells: HEK293 (ATCC CRL-1573)
# Method: (§1) HEK293 cells were seeded at 20,000 cells/well into white, opaque 96-well plates. The next day, cells were transiently cotransfected with pGloSensor-cAMP-22F and pcDNA3-HA-hGPR17L or pcDNA3-HA-hGPR17L-variants using lipofectamine 3000. Twenty-four hours posttransfection, growth medium and transfection mix were aspirated and replaced with 100 μl/well equilibration medium (2% Promega GloSensor cAMP reagent [E1291; Promega Corporation] in CO2-independent medium) and incubated at room temperature for 2 h. Baseline luminescence was read on a Molecular Devices SpectraMax iD5 plate reader (Molecular Devices) at ambient room temperature for 8 min. Subsequently, 10 μl/well MDL29,951 diluted in assay buffer (HBSS, 20 mM HEPES, pH 7.2) was added and luminescence was read for 10 min. Finally, 10 μl/well forskolin (1099; Tocris Bioscience) diluted in assay buffer was added and luminescence was measured for 20–30 min. The average luminescence value for the 14–20 min time points for each well was normalized to their average baseline luminescence value and expressed as a percentage of the forskolin-stimulated response within each transfection condition.
# [2] = biological target: T2, hGPR17L-D105N (Homo sapiens, UniProt Q13304, D105N)
# T2 construct: expressed in transfected cells; host or cells: HEK293 (ATCC CRL-1573), transient transfection
# T2 sequence (Q13304 whole entry D105N): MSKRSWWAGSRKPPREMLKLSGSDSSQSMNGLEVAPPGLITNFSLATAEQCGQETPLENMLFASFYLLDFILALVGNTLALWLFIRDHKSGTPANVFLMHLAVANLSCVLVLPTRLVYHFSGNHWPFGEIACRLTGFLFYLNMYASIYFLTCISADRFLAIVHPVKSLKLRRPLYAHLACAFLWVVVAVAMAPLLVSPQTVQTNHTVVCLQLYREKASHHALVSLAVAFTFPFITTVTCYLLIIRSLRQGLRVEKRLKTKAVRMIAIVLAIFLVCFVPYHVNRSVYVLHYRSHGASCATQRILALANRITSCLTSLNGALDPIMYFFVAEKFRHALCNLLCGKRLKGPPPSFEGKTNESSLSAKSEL
# Method: as §1
# [3] = biological target: T3, hGPR17L-G136S (Homo sapiens, UniProt Q13304, G136S)
# T3 construct: expressed in transfected cells; host or cells: HEK293 (ATCC CRL-1573), transient transfection
# T3 sequence (Q13304 whole entry G136S): as the sequence (Q13304 whole entry D105N) above, with N105D, G136S counted along it
# Method: as §1
# [4] = biological target: T4, hGPR17L-F43L (Homo sapiens, UniProt Q13304, F43L)
# T4 construct: expressed in transfected cells; host or cells: HEK293 (ATCC CRL-1573), transient transfection
# T4 sequence (Q13304 whole entry F43L): as the sequence (Q13304 whole entry D105N) above, with F43L, N105D counted along it
# Method: as §1
# [5] = biological target: T5, hGPR17L-R301H (Homo sapiens, UniProt Q13304, R301H)
# T5 construct: expressed in transfected cells; host or cells: HEK293 (ATCC CRL-1573)
# T5 sequence (Q13304 whole entry R301H): as the sequence (Q13304 whole entry D105N) above, with N105D, R301H counted along it
# Method: as §1
# [6] = biological target: T6, hGPR17L-V103M (Homo sapiens, UniProt Q13304, V103M)
# T6 construct: expressed in transfected cells; host or cells: HEK293 (ATCC CRL-1573), transient transfection
# T6 sequence (Q13304 whole entry V103M): as the sequence (Q13304 whole entry D105N) above, with V103M, N105D counted along it
# Method: as §1
# [7] = biological target: T7, hGPR17L-V96M (Homo sapiens, UniProt Q13304, V96M)
# T7 construct: expressed in transfected cells; host or cells: HEK293 (ATCC CRL-1573), transient transfection
# T7 sequence (Q13304 whole entry V96M): as the sequence (Q13304 whole entry D105N) above, with V96M, N105D counted along it
# Method: as §1
# [8] = HEK293, inhibition of 3 μM forskolin-stimulated cAMP
# [9] = read-out: cAMP IC50, HEK293, inhibition of 3 μM forskolin-stimulated cAMP
# T1 sequence (Q13304 whole entry G354V): as the sequence (Q13304 whole entry D105N) above, with N105D, G354V counted along it
smiles,measurement,setting,value
"O=C(O)CCc1c(C(=O)O)[nH]c2cc(Cl)cc(Cl)c12 [MDL29,951]",cAMP pIC50 ± SEM,[1]; [8],8.34 ± 0.25
same,IC50,[1]; [9],4.6 nM
same,fold less potent for inhibition of forskolin-stimulated cAMP relative to hGPR17L-WT,[2],sixfold less potent
same,cAMP Efficacy (% inhibition),"[2]; HEK293, 3 μM forskolin",48 ± 4.7 % inhibition
same,cAMP 10 μM MDL +3 μM FSK (% of FSK),"[2]; HEK293, 10 μM MDL29,951",49 ± 7.3 % of FSK
same,cAMP 100 μM MDL +3 μM FSK (% of FSK),"[2]; HEK293, 100 μM MDL29,951",56 ± 10 % of FSK
same,cAMP pIC50 ± SEM,[2]; [8],7.75 ± 0.25
same,IC50,[2]; [9],18 nM
same,fold less potent for inhibition of forskolin-stimulated cAMP relative to hGPR17L-WT,[3],approximately 400 fold
same,cAMP Efficacy (% inhibition),"[3]; HEK293, 3 μM forskolin",39 ± 2.3 % inhibition
same,cAMP 10 μM MDL +3 μM FSK (% of FSK),"[3]; HEK293, 10 μM MDL29,951",65 ± 5.0 % of FSK
same,cAMP 100 μM MDL +3 μM FSK (% of FSK),"[3]; HEK293, 100 μM MDL29,951",60 ± 3.4 % of FSK
same,cAMP pIC50 ± SEM,[3]; [8],5.89 ± 0.30
same,IC50,[3]; [9],1300 nM
same,cAMP Efficacy (% inhibition),"[4]; HEK293, 3 μM forskolin",44 ± 2.7 % inhibition
same,cAMP 10 μM MDL +3 μM FSK (% of FSK),"[4]; HEK293, 10 μM MDL29,951",107 ± 24 % of FSK
same,cAMP 100 μM MDL +3 μM FSK (% of FSK),"[4]; HEK293, 100 μM MDL29,951",145 ± 30 % of FSK
same,cAMP pIC50 ± SEM,[4]; [8],8.81 ± 0.37
same,IC50,[4]; [9],1.6 nM
same,cAMP Efficacy (% inhibition),"[5]; HEK293, 3 μM forskolin",52 ± 5.2 % inhibition
same,cAMP 10 μM MDL +3 μM FSK (% of FSK),"[5]; HEK293, 10 μM MDL29,951",72 ± 2.5 % of FSK
same,cAMP 100 μM MDL +3 μM FSK (% of FSK),"[5]; HEK293, 100 μM MDL29,951",101 ± 2.9 % of FSK
same,cAMP pIC50 ± SEM,[5]; [8],8.00 ± 0.46
same,IC50,[5]; [9],10 nM
same,cAMP Efficacy (% inhibition),"[6]; HEK293, 3 μM forskolin",40 ± 1.3 % inhibition
same,cAMP 10 μM MDL +3 μM FSK (% of FSK),"[6]; HEK293, 10 μM MDL29,951",81 ± 4.0 % of FSK
same,cAMP 100 μM MDL +3 μM FSK (% of FSK),"[6]; HEK293, 100 μM MDL29,951",101 ± 4.0 % of FSK
same,cAMP pIC50 ± SEM,[6]; [8],9.24 ± 0.41
same,IC50,[6]; [9],0.57 nM
same,cAMP Efficacy (% inhibition),"[7]; HEK293, 3 μM forskolin",36 ± 4.2 % inhibition
same,cAMP 10 μM MDL +3 μM FSK (% of FSK),"[7]; HEK293, 10 μM MDL29,951",60 ± 5.6 % of FSK
same,cAMP 100 μM MDL +3 μM FSK (% of FSK),"[7]; HEK293, 100 μM MDL29,951",65 ± 4.6 % of FSK
same,cAMP pIC50 ± SEM,[7]; [8],8.77 ± 0.36
same,IC50,[7]; [9],1.7 nM
